According to patent publication US20190209514A1, “Treatment of Bladder Cancer by Local Administration of Taxane Particles” (CRITITECH, INC., priority 2018, published 2019):
Values joined by “and” are separate entries in the source; they are usually repeats but may differ in a detail not shown here. Identical values can stand only once. “Also recorded” adds a separate entry of the source. Marks after values point to notes of the source that are not given here. One block for each molecule: values may come before it.

Assays:
[1] = Docetaxel dissolution study, methanol/water 15/85, USP Apparatus II; type: physicochemical; settings: for Docetaxel Dissolution time course: methanol/water 15/85
Experimental: The procedures used to determine the dissolution rates are as follows. […] Beads were transferred to a stainless steel mesh container and placed in the dissolution bath containing methanol/water 50/50 (v/v) media at 37° C., pH 7, and a USP Apparatus II (Paddle), operating at 75 rpm. At 10, 20, 30, 60, and 90 minutes, a 5 mL aliquot was removed, filtered through a 0.22 μm filter and analyzed on a UV/VIS spectrophotometer at 227 nm. Absorbance values of the samples were compared to those of standard solutions prepared in dissolution media to determine the amount of material dissolved. […] At 5, 15, 30, 60, 120 and 225 minutes, a 5 mL aliquot was removed, filtered through a 0.22 μm filter, and analyzed on a UV/VIS spectrophotometer at 232 nm. Absorbance values of the samples were compared to those of standard solutions prepared in dissolution media to determine the amount of material dissolved.
At 5, 15, 30, 60, 120 and 225 minutes, a 5 mL aliquot was removed, filtered through a 0.22 μm filter, and analyzed on a UV/VIS spectrophotometer at 232 nm. Absorbance values of the samples were compared to those of standard solutions prepared in dissolution media to determine the amount of material dissolved.

[2] = Particle size analysis (light obscuration / laser diffraction); type: physicochemical
Source text: The particle size of the taxane particles can be determined by a particle size analyzer instrument and the measurement is expressed as the mean diameter based on a number distribution (number). A suitable particle size analyzer instrument is one which employs the analytical technique of light obscuration, also referred to as photozone or single particle optical sensing (SPOS). A suitable light obscuration particle size analyzer instrument is the ACCUSIZER, such as the ACCUSIZER 780 SIS, available from Particle Sizing Systems, Port Richey, Fla. Another suitable particle size analyzer instrument is one which employs laser diffraction, such as the Shimadzu SALD-7101.
Particle size was analyzed by both light obscuration and laser diffraction methods. An Particle Sizing Systems AccuSizer 780 SIS system was used for the light obscuration method and Shimadzu SALD-7101 was used for the laser diffraction method.
The vials were vortexed for approximately 10 seconds and then sonicated in a sonic bath approximately 1 minute.
The vial was vortexed for approximately 10 seconds and then sonicated in a sonic bath for approximately 2 minutes. This suspension was used for laser diffraction analysis. Unused suspension was poured into a 125 mL particle-free plastic bottle, which was then filled to approximately 100 mL with filtered dispersant. The suspension was vortex for approximately 10 seconds and then sonicated in the sonic bath for approximately 2 minutes. This diluted suspension was used for light obscuration analysis.
A background test was first performed prior to analyzing particles on the AccuSizer 780 SIS. A new particle-free plastic bottle was filled with blank suspension solution by pumping from a reservoir, using a peristaltic pump, through a 0.22 μm Millipore filter and into the bottle. A background analysis was run to ensure the particle/mL count was below 100 particles/mL. […] Once the analysis was completed, the background data was removed and any measurement with less than four counts was removed.
To analyze particles on SALD-7101 using a batch cell, the analysis was started by choosing Manual Measurement. The refractive index was set as 1.5 to 1.7. The batch cell was filled with filtered dispersant just past the etched line. The blank measurement was ran. […] The measurements were executed, and the resulting graph with the highest level of confidence was selected; background was automatically accounted for.

[3] = test system: UM-UC-3 bladder cancer cell line (ATCC-CRL-1749) tumors; experiment: Human bladder cancer (UM-UC-3) mouse xenograft study, tumor volume; type: in vivo, Hsd:Athymic Nude-Foxn1nu nude mice
Experimental: Tumor volume was determined with calipers. […] Animals were weighed 2×/week.
At day 18 after tumor implant, when average tumor size was between 50-325 mm^3, animals were sorted into five groups with equal average tumor sizes and were treated as shown in Table 8 below.
The second treatments (2nd cycle) occurred 7 days following first treatment (1st cycle) and third treatments (3rd cycle) occurred 14 days following the first treatment. The docetaxel solution IV was administered via the tail vein.
The test formulations were prepared as follows: • Vehicle (Control): Diluted 1 ml of the 1% Polysorbate 80/8% Ethanol in normal saline (0.9% Sodium Chloride for Injection) reconstitution solution with 1.5 mL of normal saline (0.9% Sodium Chloride for Injection, USP). […] Vigorously hand shook the vial with inversions for 1 minute. […] Vortexed to mix.
Tumor volumes were determined 2×/week for the duration of the study (61 days). The results of the study are shown in FIG. 4, FIG. 5, FIG. 6, FIG. 7, FIG. 8, FIG. 9, FIG. 10, FIG. 11, FIG. 12 & FIG. 13. […] These observations are also reflected in FIG. 5, FIG. 6, FIG. 7, FIG. 8, FIG. 9, FIG. 12 & FIG. 13.

[4] = IV docetaxel 3 cycles; of 7 tumors measured; day of death or euthanasia
[5] = test system: UM-UC-3 bladder cancer cell line (ATCC-CRL-1749) tumors; experiment: Xenograft study: histology (H&E) and immunohistochemistry of tumor site tissue; type: in vivo, Hsd:Athymic Nude-Foxn1nu nude mice
[6] = BET specific surface area (SSA); type: physicochemical
Experimental: As used herein, the “specific surface area” (SSA) is the total surface area of the taxane particle per unit of taxane mass as measured by the Brunauer-Emmett-Teller (“BET”) isotherm by the following method: a known mass between 200 and 300 mg of the analyte is added to a 30 mL sample tube. […] The automated test is then carried out using the BETWIN® software package and the surface area of each sample is subsequently calculated. As will be understood by those of skill in the art, the “taxane particles” can include both agglomerated taxane particles and non-agglomerated taxane particles; since the SSA is determined on a per gram basis it takes into account both the larger agglomerated and smaller non-agglomerated taxane particles in the composition. The agglomerated taxane particles are defined herein as individual taxane particles that are formed by the agglomeration of smaller particles which fuse together forming the larger individual taxane particles, all of which occurs during the processing of the taxane particles. […]
A known mass between 200 and 300 mg of the analyte was added to a 30 mL sample tube. […] The automated test was then carried out using the BETWIN® software package and the surface area of each sample was subsequently calculated.

[7] = Paclitaxel dissolution study, methanol/water 50/50, USP Apparatus II; type: physicochemical; settings: methanol/water 50/50 (v/v), 37° C., pH 7, paddle 75 rpm
Experimental: Beads were transferred to a stainless steel mesh container and placed in the dissolution bath containing methanol/water 50/50 (v/v) media at 37° C., pH 7, and a USP Apparatus II (Paddle), operating at 75 rpm. […] Absorbance values of the samples were compared to those of standard solutions prepared in dissolution media to determine the amount of material dissolved. […] Absorbance values of the samples were compared to those of standard solutions prepared in dissolution media to determine the amount of material dissolved.
Beads were transferred to a stainless steel mesh container and placed in the dissolution bath containing methanol/water 50/50 (v/v) media at 37° C., pH 7, and a USP Apparatus II (Paddle), operating at 75 rpm. At 10, 20, 30, 60, and 90 minutes, a 5 mL aliquot was removed, filtered through a 0.22 μm filter and analyzed on a U(V/V)is spectrophotometer at 227 nm. Absorbance values of the samples were compared to those of standard solutions prepared in dissolution media to determine the amount of material dissolved.

[8] = Bulk density (not tapped); type: physicochemical
Experimental: As used herein, the “specific surface area” (SSA) is the total surface area of the taxane particle per unit of taxane mass as measured by the Brunauer-Emmett-Teller (“BET”) isotherm by the following method: a known mass between 200 and 300 mg of the analyte is added to a 30 mL sample tube. […] The automated test is then carried out using the BETWIN® software package and the surface area of each sample is subsequently calculated. As will be understood by those of skill in the art, the “taxane particles” can include both agglomerated taxane particles and non-agglomerated taxane particles; since the SSA is determined on a per gram basis it takes into account both the larger agglomerated and smaller non-agglomerated taxane particles in the composition. The agglomerated taxane particles are defined herein as individual taxane particles that are formed by the agglomeration of smaller particles which fuse together forming the larger individual taxane particles, all of which occurs during the processing of the taxane particles. The BET specific surface area test procedure is a compendial method included in both the United States Pharmaceopeia and the European Pharmaceopeia. […]
The mass of the drug was measured to a nearest 0.1 mg, the volume was determined to the nearest 0.1 mL and the density calculated.

[9] = IV Docetaxel 3 cycles, 2 animals

Structure (SMILES): CC(=O)O[C@@]12CO[C@@H]1C[C@H](O)[C@@]1(C)C(=O)[C@H](O)C3=C(C)[C@@H](OC(=O)[C@H](O)[C@@H](NC(=O)OC(C)(C)C)c4ccccc4)C[C@@](O)([C@@H](OC(=O)c4ccccc4)[C@H]21)C3(C)C [Docetaxel Raw Material, docetaxel]
- Docetaxel Dissolution time course ([1]; 0 minutes): 0.0%
- Docetaxel Dissolution time course ([1]; 5 minutes): 3.2%
- Docetaxel Dissolution time course ([1]; 15 minutes): 6.9%
- Docetaxel Dissolution time course ([1]; 30 minutes): 11.2%
- Docetaxel Dissolution time course ([1]; 60 minutes): 16.4%
- Docetaxel Dissolution time course ([1]; 120 minutes): 22.4%
- Docetaxel Dissolution time course ([1]; 225 minutes): 26.8%
- Dissolution (30 min) ([1]; docetaxel, methanol/water 15/85 (v/v), 37° C., pH 7, paddle 75 rpm, 30 min): 11%
- Number Mean (um) [2]: 1.58 um
- Volume Mean (um) [2]: 5.05 um

Structure (SMILES): CC(=O)O[C@@]12CO[C@@H]1C[C@H](O)[C@@]1(C)C(=O)[C@H](O)C3=C(C)[C@@H](OC(=O)[C@H](O)[C@@H](NC(=O)OC(C)(C)C)c4ccccc4)C[C@@](O)([C@@H](OC(=O)c4ccccc4)[C@H]21)C3(C)C [Docetaxel, docetaxel]
- tumor volume ([3]; Docetaxel Solution 30 mg/kg IV, 3 weekly cycles, to Day 61): Tumor volumes decreased initially; also recorded: subsequently increased; also recorded: somewhat effective at treating small tumors, but not very effective in treating large tumors
- Necropsy volume (mm^3), per animal ([3]; IV Docetaxel 3 cycles (B1, B3)): 2872 mm^3 and 1652 mm^3
- tumors with docetaxel levels above the limit of quantitation (1 ng/g) [4]: 1
- histology general observations (H&E) ([5]; Docetaxel Solution IV 3 cycles): many viable appearing tumor masses with some macrophage and occasional lymphocytic response along with some tumor necrosis
- Maximum tumor size on slide / size of viable nodules (mm), per animal ([5]; IV Docetaxel 3 cycles (cases B1, B3)): 11 mm and 15 mm
- Macrophage infiltrate density (CD68): animals graded Mild [5, 9]: 2
- Maximum size of viable invasive carcinoma on the slide: animals with >10 mm [5, 9]: 2*
- Percentage of tumor showing necrosis: animals with 11-50% [5, 9]: 1
- Percentage of tumor showing necrosis: animals with 50-90% [5, 9]: 1

- Surface Area (m^2/g) ([6]; BET): 10.4 m^2/g
- BET surface area ([6]; Example 1 results text): 7.25 m^2/g
- Dissolution (30 min) [7]: 18%
- Bulk Density [8]: 0.26 g/mL
- Number Mean (um) [2]: 1.16 um
- Volume Mean (um) [2]: 1.29 um
Structure (SMILES): CC(=O)O[C@H]1C(=O)[C@@]2(C)[C@H]([C@H](OC(=O)c3ccccc3)[C@]3(O)C[C@H](OC(=O)[C@H](O)[C@@H](NC(=O)c4ccccc4)c4ccccc4)C(C)=C1C3(C)C)[C@]1(OC(C)=O)CO[C@@H]1C[C@@H]2O [Paclitaxel Raw Material, paclitaxel]
